How the values were obtained:
[1] = test system: HABS (astrocyte control); assay: EC50 (inflection of fitted growth-inhibition curve) (log10 M)
How it was run: (§1)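 Compounds were delivered by pin tool as a 10-point threefold dilution series with a mean top concentration of 35 μM, in triplicate, to patient-derived pHGG/DIPG cell lines and astrocyte controls growing on 1% Geltrex-coated 384-well plates. Incubation lasted 7 days, or 3 days for iAstro, at 37 °C with 5% CO2. EC50 and maximal response (yFin) come from the three- or four-parameter log-logistic fit with the lowest AICc, applied to pooled, log2-transformed CellTiter-Glo luminescence normalised per plate to % activity between solvent (negative) and positive control wells.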

[2] = test system: HGGX2 (paediatric high-grade glioma line); assay: as above
How it was run: as §1

[3] = test system: HGGX39 (paediatric high-grade glioma line); assay: as above
How it was run: as §1

[4] = test system: SUDIPGXVII (diffuse intrinsic pontine glioma line); assay: as above
How it was run: as §1

[5] = test system: SUDIPGXIII (diffuse intrinsic pontine glioma line); assay: as above
How it was run: as §1

[6] = test system: DIPGX29 (H3.3 K27M diffuse intrinsic pontine glioma line); assay: as above
How it was run: as §1

[7] = test system: HGGX6 (H3.3 G34R paediatric high-grade glioma line); assay: as above
How it was run: as §1

[8] = test system: DIPGX7 (H3.3 K27M diffuse intrinsic pontine glioma line); assay: as above
How it was run: as §1

[9] = test system: iAstro (astrocyte control); assay: as above
How it was run: as §1

[10] = test system: HGGX42 (H3.3 G34R paediatric high-grade glioma line); assay: as above
How it was run: as §1

[11] = test system: DIPGX9 (diffuse intrinsic pontine glioma line); assay: as above
How it was run: as §1

[12] = test system: SUDIPGXXI (diffuse intrinsic pontine glioma line); assay: as above
How it was run: as §1

[13] = test system: SUDIPGIV (diffuse intrinsic pontine glioma line); assay: as above
How it was run: as §1

[14] = test system: SUDIPGXIX (diffuse intrinsic pontine glioma line); assay: as above
How it was run: as §1

[15] = test system: SUDIPGVI (diffuse intrinsic pontine glioma line); assay: as above
How it was run: as §1

[16] = test system: HABS; assay: area under dose-response curve of % growth inhibition (log2 RLU vs DMSO / staurosporine), 1e-11 to 1e-4 M (% x log10 M); higher = more growth inhibition
How it was run: (§2)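 Area under the curve was derived with the trapezoid rule from a fitted log-logistic curve, switching to a smoothing spline if the sigmoid fit failed. It rested on per-plate % activity between solvent and positive controls, calculated from log2-transformed CellTiter-Glo luminescence after 7 days of exposure (3 days for iAstro) at 37 °C, 5% CO2. Patient-derived pHGG/DIPG lines and astrocytes on 1% Geltrex-coated 384-well plates received a 10-point threefold dilution series, mean top concentration 35 μM, in triplicate.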

[17] = test system: HGGX2; assay: as above
How it was run: as §2

[18] = test system: HGGX39; assay: as above
How it was run: as §2

[19] = test system: SUDIPGXVII; assay: as above
How it was run: as §2

[20] = test system: SUDIPGXIII; assay: as above
How it was run: as §2

[21] = test system: DIPGX29; assay: as above
How it was run: as §2

[22] = test system: HGGX6; assay: as above
How it was run: as §2

[23] = test system: DIPGX7; assay: as above
How it was run: as §2

[24] = test system: iAstro; assay: as above
How it was run: as §2

[25] = test system: DIPGX37 (H3.3 K27M diffuse intrinsic pontine glioma line); assay: as above
How it was run: as §2

[26] = test system: HGGX42; assay: as above
How it was run: as §2

[27] = test system: DIPGX9; assay: as above
How it was run: as §2

[28] = test system: SUDIPGXXI; assay: as above
How it was run: as §2

[29] = test system: SUDIPGIV; assay: as above
How it was run: as §2

[30] = test system: SUDIPGXIX; assay: as above
How it was run: as §2

[31] = test system: SUDIPGVI; assay: as above
How it was run: as §2

Structure (SMILES)	EC50 (log10 M) [1]	EC50 (log10 M) [2]	EC50 (log10 M) [3]	EC50 (log10 M) [4]	EC50 (log10 M) [5]	EC50 (log10 M) [6]	EC50 (log10 M) [7]	EC50 (log10 M) [8]	EC50 (log10 M) [9]	EC50 (log10 M) [10]	EC50 (log10 M) [11]	EC50 (log10 M) [12]	EC50 (log10 M) [13]	EC50 (log10 M) [14]	EC50 (log10 M) [15]	area under dose-response curve [16]	area under dose-response curve [17]	area under dose-response curve [18]	area under dose-response curve [19]	area under dose-response curve [20]	area under dose-response curve [21]	area under dose-response curve [22]	area under dose-response curve [23]	area under dose-response curve [24]	area under dose-response curve [25]	area under dose-response curve [26]	area under dose-response curve [27]	area under dose-response curve [28]	area under dose-response curve [29]	area under dose-response curve [30]	area under dose-response curve [31]
CCN(CC)CCNC(=O)c1c(C)[nH]c(/C=C2\C(=O)Nc3ccc(F)cc32)c1C [SUNITINIB]	-4.96	-5.16	-4.77	-4.97	-4.94	-4.95	-4.88	-4.99	-5.05	-5.25	-5.03	-5.41	-4.83	-5.05	-5.01	122	141	100	128	144	97.9	95.1	123	113	103	193	129	176	99.2	135	124
CN(C)C/C=C/C(=O)Nc1ccc(C(=O)Nc2cccc(Nc3ncc(Cl)c(-c4c[nH]c5ccccc45)n3)c2)cc1 [THZ1]	-6.72	-7.58	-7.15	-7.78	-7.62	-7.44	-7.28	-8.02	-5.76	-7.25	-8.19	-8.32	-7.91	-8.07	-8.04	284	349	272	329	308	301	267	356	186	302	360	372	460	342	343	345
